Here are results for 25 compounds from US20230082430A1 (C4 Therapeutics, Inc., priority 2019, published 2023).

The structures appear in SMILES notation. A value given as a limit tells only on which side of the number the result lay.

In the first experiment the test system is NCIH929.1 cells. Nature of the experiment: Cell viability assay for Table 2 (CellTiter-Glo 2.0, ATP quantification, 96 hr). It is filed as cell-based. As to conditions: 96 h, NCIH929.1 cell viability, 96 hr, top concentration 1 μM, 14 points half log titration; read-out: IC50. An excerpt:
Cell Viability Assay for Table 2
CellTiter-Glo® 2.0 Assay was purchased from Promega (Madison, Wis., USA). NCIH929.1 cell line was purchased from ATCC (Manassas, Va., USA). Cell culture flasks and 384-well microplates were acquired from VWR (Radnor, Pa., USA).
With `CC(C)(C)OC(=O)N1CCC(n2cc(Cc3ccc4c5c(cccc35)C(=O)N4C3CCC(=O)NC3=O)cn2)CC1` (racemic) [Compound 140, tert-butyl 4-(4-((1-(2,6-dioxopiperidin-3-yl)-2-oxo-1,2-dihydrobenzo[cd]indol-6-yl)methyl)-1H-pyrazol-1-yl)piperidine-1-carboxylate], the IC50 was less than 1 nM.

Regarding `N#Cc1ccc(N2CCN(Cc3ccc(Cc4ccc5c6c(cccc46)C(=O)N5C4CCC(=O)NC4=O)cc3)CC2)c(F)c1` (racemic) [Compound 183, 4-[4-[[4-[[1-(2,6-dioxo-3-piperidyl)-2-oxo-benzo[cd]indol-6-yl]methyl]phenyl]methyl]piperazin-1-yl]-3-fluoro-benzonitrile], the IC50 is less than 1 nM.

Turning to `O=C1CCC(N2C(=O)c3cccc4c(Cc5ccc(CN6CCOCC6)cc5)cnc2c34)C(=O)N1` (racemic) [Compound 221, 3-[20-[[4-(morpholinomethyl)phenyl]methyl]-25-oxo-27,30-diazatricyclododeca-(2),1(18),7(20),19(21),22(27)-pentaen-30-yl]piperidine-2,6-dione], the 50% inhibitory concentration (IC50) was less than 1 nM.

`O=C1CCC(N2C(=O)c3cccc4c(Cc5ccc(CN6CCC7(CCCO7)CC6)nc5)ccc2c34)C(=O)N1` (racemic) [Compound 268, 3-[6-[[6-(1-oxa-8-azaspiro[4.5]decan-8-ylmethyl)-3-pyridyl]methyl]-2-oxo-benzo[cd]indol-1-yl]piperidine-2,6-dione]: the IC50 was less than 1 nM.

Regarding `CC1(C(=O)N2CCC(n3cc(Cc4ccc5c6c(cccc46)C(=O)N5C4CCC(=O)NC4=O)cn3)CC2)CCC1` (single isomer, unassigned) [Compound 67, 3-[6-[[1-[1-(1-methylcyclobutanecarbonyl)-4-piperidyl]pyrazol-4-yl]methyl]-2-oxo-benzo[cd]indol-1-yl]piperidine-2,6-dione], the IC50 is less than 1 nM.

On to `N#Cc1ccc(N2CCN(Cc3cnn(Cc4ccc5c6c(cccc46)C(=O)N5C4CCC(=O)NC4=O)c3)CC2)c(F)c1` (single isomer, unassigned) [Compound 129, 4-[4-[[1-[[1-[2,6-dioxo-3-piperidyl]-2-oxo-benzo[cd]indol-6-yl]methyl]pyrazol-4-yl]methyl]piperazin-1-yl]-3-fluoro-benzonitrile], for which the IC50 is less than 1 nM.

In the case of `CC(C)(C)OC(=O)N1CCC(n2cc(Cc3ccc4c5c(cccc35)C(=O)N4C3CCC(=O)NC3=O)cn2)CC1` (single isomer, unassigned) [Compound 141, tert-butyl 4-[4-[[1-[2,6-dioxo-3-piperidyl]-2-oxo-benzo[cd]indol-6-yl]methyl]pyrazol-1-yl]piperidine-1-carboxylate], the IC50 was less than 1 nM.

For `CC(c1cnn(C2CCN(C(=O)C3(C)CCC3)CC2)c1)c1ccc2c3c(cccc13)C(=O)N2C1CCC(=O)NC1=O` (single isomer, unassigned) [Compound 148, 3-(6-(1-(1-(1-(1-methylcyclobutane-1-carbonyl)piperidin-4-yl)-1H-pyrazol-4-yl)ethyl)-2-oxobenzo[cd]indol-1(2H)-yl)piperidine-2,6-dione], the IC50 is less than 1 nM.

For `O=C1CCC(N2C(=O)c3cccc4c(Cc5ccc(CN6CCN(S(=O)(=O)CC(F)(F)F)CC6)cc5)ccc2c34)C(=O)N1` (single isomer, unassigned) [Compound 159, 3-(2-Oxo-6-{4-[4-(2,2,2-trifluoro-ethanesulfonyl)-piperazin-1-ylmethyl]-benzyl}-2H-benzo[cd]indol-1-yl)-piperidine-2,6-dione], the half-inhibitory concentration (IC50) is less than 1 nM.

Take `O=C1CCC(N2C(=O)c3cccc4c(Cc5cnn(C6CCN(C7CCCC78CCC8)CC6)c5)ccc2c34)C(=O)N1` (single isomer, unassigned) [Compound 178, 3-[2-oxo-6-[[1-[1-[spiro[3.4]octan-8-yl]-4-piperidyl]pyrazol-4-yl]methyl]benzo[cd]indol-1-yl]piperidine-2,6-dione]: the IC50 was less than 1 nM.

Consider `N#Cc1ccc(N2CCN(Cc3ccc(Cc4ccc5c6c(cccc46)C(=O)N5C4CCC(=O)NC4=O)cc3)CC2)c(F)c1` (single isomer, unassigned) [Compound 184, 4-(4-(4-((1-(2,6-dioxopiperidin-3-yl)-2-oxo-1,2-dihydrobenzo[cd]indol-6-yl)methyl)benzyl)piperazin-1-yl)-3-fluorobenzonitrile], for which the IC50 was less than 1 nM.

With `CC1(CN2CCC(n3cc(Cc4ccc5c6c(cccc46)C(=O)N5C4CCC(=O)NC4=O)cn3)C(F)(F)C2)CCC1` (single isomer, unassigned) [Compound 186, 3-[6-[[1-[3,3-difluoro-1-[(1-methylcyclobutyl)methyl]-4-piperidyl]pyrazol-4-yl]methyl]-2-oxo-benzo[cd]indol-1-yl]piperidine-2,6-dione], the IC50 is less than 1 nM.

For the compound `O=C1CC[C@H](N2C(=O)c3cccc4c(Cc5ccc(CN6CCC7(CCCO7)CC6)cc5)ccc2c34)C(=O)N1` (single isomer, unassigned) [Compound 216, 3-[6-[[4-(1-oxa-8-azaspiro[4.5]decan-8-ylmethyl)phenyl]methyl]-2-oxo-benzo[cd]indol-1-yl]piperidine-2,6-dione], the 50% inhibitory concentration (IC50) was less than 1 nM.

In the case of `O=C1CCC(N2C(=O)c3cccc4c(Cc5ccc(CN6CCC7(CCCO7)CC6)cc5)ccc2c34)C(=O)N1` (single isomer, unassigned) [Compound 217, 3-[6-[[4-(1-oxa-8-azaspiro[4.5]decan-8-ylmethyl)phenyl]methyl]-2-oxo-benzo[cd]indol-1-yl]piperidine-2,6-dione], the IC50 was less than 1 nM.

In the case of `O=C1CC[C@H](N2C(=O)c3cccc4c(Cc5ccc(CN6CCOCC6)cc5)ccc2c34)C(=O)N1` (single isomer, unassigned) [Compound 219, 3-(6-(4-(morpholinomethyl)benzyl)-2-oxobenzo[cd]indol-1(2H)-yl)piperidine-2,6-dione], the half-inhibitory concentration (IC50) was less than 1 nM.

Still in this experiment, the particulars now being: NCIH929.1 cell viability, 96 hr, top concentration 1 μM, 14 points half log titration; read-out: IC50.
`CC1(C(=O)N2CCC(n3cc(Cc4ccc5c6c(cccc46)C(=O)N5C4CCC(=O)NC4=O)cn3)CC2)CCC1` (single isomer, unassigned) [Compound 68, 3-[6-[[1-[1-(1-methylcyclobutanecarbonyl)-4-piperidyl]pyrazol-4-yl]methyl]-2-oxo-benzo[cd]indol-1-yl]piperidine-2,6-dione]: the IC50 is less than 1 nM.

In the case of `N#Cc1ccc(N2CCN(Cc3cnn(Cc4ccc5c6c(cccc46)C(=O)N5C4CCC(=O)NC4=O)c3)CC2)c(F)c1` (single isomer, unassigned) [Compound 130, 4-[4-[[1-[[1-[2,6-dioxo-3-piperidyl]-2-oxo-benzo[cd]indol-6-yl]methyl]pyrazol-4-yl]methyl]piperazin-1-yl]-3-fluoro-benzonitrile], the IC50 is less than 1 nM.

With `CC(C)(C)OC(=O)N1CCC(n2cc(Cc3ccc4c5c(cccc35)C(=O)N4C3CCC(=O)NC3=O)cn2)CC1` (single isomer, unassigned) [Compound 142, tert-butyl 4-[4-[[1-[2,6-dioxo-3-piperidyl]-2-oxo-benzo[cd]indol-6-yl]methyl]pyrazol-1-yl]piperidine-1-carboxylate], the IC50 is less than 1 nM.

As for `CC(c1cnn(C2CCN(C(=O)C3(C)CCC3)CC2)c1)c1ccc2c3c(cccc13)C(=O)N2C1CCC(=O)NC1=O` (single isomer, unassigned) [Compound 149, 3-(6-(1-(1-(1-(1-methylcyclobutane-1-carbonyl)piperidin-4-yl)-1H-pyrazol-4-yl)ethyl)-2-oxobenzo[cd]indol-1(2H)-yl)piperidine-2,6-dione], the IC50 was less than 1 nM.

On to `O=C1CCC(N2C(=O)c3cccc4c(Cc5ccc(CN6CCN(S(=O)(=O)CC(F)(F)F)CC6)cc5)ccc2c34)C(=O)N1` (single isomer, unassigned) [Compound 160, 3-(2-Oxo-6-{4-[4-(2,2,2-trifluoro-ethanesulfonyl)-piperazin-1-ylmethyl]-benzyl}-2H-benzo[cd]indol-1-yl)-piperidine-2,6-dione], for which the IC50 was less than 1 nM.

Consider `O=C1CCC(N2C(=O)c3cccc4c(Cc5cnn(C6CCN(C7CCCC78CCC8)CC6)c5)ccc2c34)C(=O)N1` (single isomer, unassigned) [Compound 179, 3-[2-oxo-6-[[1-[1-[spiro[3.4]octan-8-yl]-4-piperidyl]pyrazol-4-yl]methyl]benzo[cd]indol-1-yl]piperidine-2,6-dione], for which the IC50 was less than 1 nM.

As to `N#Cc1ccc(N2CCN(Cc3ccc(Cc4ccc5c6c(cccc46)C(=O)N5C4CCC(=O)NC4=O)cc3)CC2)c(F)c1` (single isomer, unassigned) [Compound 185, 4-(4-(4-((1-(2,6-dioxopiperidin-3-yl)-2-oxo-1,2-dihydrobenzo[cd]indol-6-yl)methyl)benzyl)piperazin-1-yl)-3-fluorobenzonitrile], the concentration for half-maximal inhibition (IC50) is less than 1 nM.

With `CC1(CN2CCC(n3cc(Cc4ccc5c6c(cccc46)C(=O)N5C4CCC(=O)NC4=O)cn3)C(F)(F)C2)CCC1` (single isomer, unassigned) [Compound 187, 3-[6-[[1-[3,3-difluoro-1-[(1-methylcyclobutyl)methyl]-4-piperidyl]pyrazol-4-yl]methyl]-2-oxo-benzo[cd]indol-1-yl]piperidine-2,6-dione], the IC50 is less than 1 nM.

Regarding `O=C1CCC(N2C(=O)c3cccc4c(Cc5ccc(CN6CCN(c7ccccc7F)CC6)cc5)ccc2c34)C(=O)N1` (single isomer, unassigned) [Compound 189, 3-[6-[[4-[[4-(2-fluorophenyl)piperazin-1-yl]methyl]phenyl]methyl]-2-oxo-benzo[cd]indol-1-yl]piperidine-2,6-dione], the half-inhibitory concentration (IC50) is less than 1 nM.

In the case of `O=C1CCC(N2C(=O)c3cccc4c(Cc5ccc(CN6CCN(c7ccccc7F)CC6)cc5)ccc2c34)C(=O)N1` (single isomer, unassigned) [Compound 190, 3-[6-[[4-[[4-(2-fluorophenyl)piperazin-1-yl]methyl]phenyl]methyl]-2-oxo-benzo[cd]indol-1-yl]piperidine-2,6-dione], the 50% inhibitory concentration (IC50) is less than 100 nM.
